For 34 compounds, activity coefficient results are on record in the NIST ThermoML archive (doi:10.1021/je100410k).

This data set can be described thus: activity coefficient (dimensionless); of the first substance listed, at infinite dilution; xn = mol fraction of the nth substance listed. To be noted: 101 kPa, Liquid, Chromatography, x1 = 0.

± gives the expanded uncertainty stated by the source.

On to `Cc1ccccc1C` [1,2-dimethylbenzene] + CCCCn1cc[n+](C)c1.Cc1ccc(S(=O)(=O)[O-])cc1, for which the activity coefficient came out at 4.07 ± 0.28 (338.2 K), 4.01 ± 0.27 (348.2 K), 3.96 ± 0.27 (358.2 K) and 3.93 ± 0.27 (368.2 K).
For the compound `Cc1cccc(C)c1` [1,3-dimethylbenzene] + CCCCn1cc[n+](C)c1.Cc1ccc(S(=O)(=O)[O-])cc1, the activity coefficient runs as follows: (338.2 K) 4.76 ± 0.32; (348.2 K) 4.67 ± 0.32; (358.2 K) 4.63 ± 0.32; (368.2 K) 4.58 ± 0.31.
For `Cc1ccc(C)cc1` [1,4-dimethylbenzene] + CCCCn1cc[n+](C)c1.Cc1ccc(S(=O)(=O)[O-])cc1, the activity coefficient was determined as 4.73 ± 0.32 (338.2 K), 4.64 ± 0.32 (348.2 K), 4.61 ± 0.31 (358.2 K) and 4.56 ± 0.31 (368.2 K).
The like results for `C=CCCCCC` [1-heptene] + CCCCn1cc[n+](C)c1.Cc1ccc(S(=O)(=O)[O-])cc1 were, in that order, 24.2 ± 1.7, 22.5 ± 1.5, 21.5 ± 1.5 and 20.4 ± 1.4.
Consider `C#CCCCCC` [1-heptyne] + CCCCn1cc[n+](C)c1.Cc1ccc(S(=O)(=O)[O-])cc1, for which the activity coefficient reads like this: (338.2 K) 5.13 ± 0.35; (348.2 K) 5.23 ± 0.36; (358.2 K) 5.34 ± 0.36; (368.2 K) 5.43 ± 0.37.
Consider `C#CCCCC` [1-hexyne] + CCCCn1cc[n+](C)c1.Cc1ccc(S(=O)(=O)[O-])cc1, for which the activity coefficient runs as follows: (338.2 K) 3.69 ± 0.25; (348.2 K) 3.78 ± 0.26; (358.2 K) 3.86 ± 0.26; (368.2 K) 3.94 ± 0.27.
The like results for `C#CCCCCCC` [1-octyne] + CCCCn1cc[n+](C)c1.Cc1ccc(S(=O)(=O)[O-])cc1 were, in that order, 7.12 ± 0.49, 7.28 ± 0.5, 7.39 ± 0.5 and 7.15 ± 0.49.
Consider `C=CCCC` [1-pentene] + CCCCn1cc[n+](C)c1.Cc1ccc(S(=O)(=O)[O-])cc1, for which the activity coefficient reads like this: (338.2 K) 13.7 ± 0.9; (348.2 K) 12.6 ± 0.9; (358.2 K) 11.9 ± 0.8; (368.2 K) 11.2 ± 0.8.
As to `COC(C)(C)C` [2-methoxy-2-methylpropane] + CCCCn1cc[n+](C)c1.Cc1ccc(S(=O)(=O)[O-])cc1, the activity coefficient is 8.28 ± 0.56 (338.2 K), 7.84 ± 0.53 (348.2 K), 7.58 ± 0.52 (358.2 K) and 7.37 ± 0.5 (368.2 K).
Consider `CC(C)=O` [acetone] + CCCCn1cc[n+](C)c1.Cc1ccc(S(=O)(=O)[O-])cc1, for which the activity coefficient reads like this: (338.2 K) 1.48 ± 0.1; (348.2 K) 1.46 ± 0.1; (358.2 K) 1.45 ± 0.1; (368.2 K) 1.42 ± 0.09.
For `c1ccccc1` [benzene] + CCCCn1cc[n+](C)c1.Cc1ccc(S(=O)(=O)[O-])cc1, the activity coefficient (338.2 K) stood at 1.96 ± 0.13, the activity coefficient (348.2 K) amounted to 1.93 ± 0.13, the activity coefficient (358.2 K) is 1.93 ± 0.13 and the activity coefficient (368.2 K) was determined as 1.93 ± 0.13.
Consider `C1CCCCCC1` [cycloheptane] + CCCCn1cc[n+](C)c1.Cc1ccc(S(=O)(=O)[O-])cc1, for which the activity coefficient is, setting by setting: (338.2 K) 17.7 ± 1.2; (348.2 K) 16.3 ± 1.1; (358.2 K) 15.4 ± 1.1; (368.2 K) 14.5 ± 1.
Turning to `C1CCCCC1` [cyclohexane] + CCCCn1cc[n+](C)c1.Cc1ccc(S(=O)(=O)[O-])cc1, the activity coefficient amounted to 16.3 ± 1.1 (338.2 K), 14.6 ± 1 (348.2 K), 13.4 ± 0.9 (358.2 K) and 12.5 ± 0.9 (368.2 K).
Consider `C1CCCCCCC1` [cyclooctane] + CCCCn1cc[n+](C)c1.Cc1ccc(S(=O)(=O)[O-])cc1, for which the activity coefficient reads like this: (338.2 K) 21.3 ± 1.5; (348.2 K) 19.7 ± 1.3; (358.2 K) 18.6 ± 1.3; (368.2 K) 17.6 ± 1.2.
For `C1CCCC1` [cyclopentane] + CCCCn1cc[n+](C)c1.Cc1ccc(S(=O)(=O)[O-])cc1, the activity coefficient was 11.3 ± 0.8 (338.2 K), 9.9 ± 0.7 (348.2 K), 9.3 ± 0.6 (358.2 K) and 9 ± 0.6 (368.2 K).
As for `CCCCCCCCCC` [decane] + CCCCn1cc[n+](C)c1.Cc1ccc(S(=O)(=O)[O-])cc1, the activity coefficient (338.2 K) is 119 ± 8.1, the activity coefficient (348.2 K) was found to be 106 ± 7.3, the activity coefficient (358.2 K) was found to be 98.3 ± 6.7 and the activity coefficient (368.2 K) worked out at 90.8 ± 6.2.
The like results for `CCOCC` [diethyl ether] + CCCCn1cc[n+](C)c1.Cc1ccc(S(=O)(=O)[O-])cc1 were, in that order, 6.57 ± 0.45, 6.36 ± 0.43, 6.16 ± 0.42 and 5.93 ± 0.4.
The like results for `CCCOCCC` [dipropyl ether] + CCCCn1cc[n+](C)c1.Cc1ccc(S(=O)(=O)[O-])cc1 were, in that order, 15.5 ± 1.1, 15.2 ± 1, 14.2 ± 1 and 13.6 ± 0.9.
Take `CCO` [ethanol] + CCCCn1cc[n+](C)c1.Cc1ccc(S(=O)(=O)[O-])cc1: the activity coefficient (338.2 K) amounted to 0.359 ± 0.033, the activity coefficient (348.2 K) is 0.357 ± 0.033, the activity coefficient (358.2 K) is 0.358 ± 0.033 and the activity coefficient (368.2 K) amounted to 0.358 ± 0.033.
With `CCc1ccccc1` [ethylbenzene] + CCCCn1cc[n+](C)c1.Cc1ccc(S(=O)(=O)[O-])cc1, the activity coefficient turned out to be 4.45 ± 0.3 (338.2 K), 4.4 ± 0.3 (348.2 K), 4.36 ± 0.3 (358.2 K) and 4.32 ± 0.29 (368.2 K).
For `CCCCCCC` [heptane] + CCCCn1cc[n+](C)c1.Cc1ccc(S(=O)(=O)[O-])cc1, the activity coefficient by setting is: (338.15 K) 48.1 ± 3.3; (348.15 K) 42.2 ± 2.9; (358.15 K) 39.2 ± 2.7; (368.15 K) 36.6 ± 2.5.
`C=CCCCC` [hex-1-ene] + CCCCn1cc[n+](C)c1.Cc1ccc(S(=O)(=O)[O-])cc1: the activity coefficient was 18 ± 1.2 (338.2 K), 16.6 ± 1.1 (348.2 K), 15.7 ± 1.1 (358.2 K) and 14.9 ± 1 (368.2 K).
On to `CCCCCC` [hexane] + CCCCn1cc[n+](C)c1.Cc1ccc(S(=O)(=O)[O-])cc1, for which the activity coefficient (338.15 K) was found to be 36.3 ± 2.5, the activity coefficient (348.15 K) amounted to 31.5 ± 2.2, the activity coefficient (358.15 K) came out at 29.2 ± 2 and the activity coefficient (368.15 K) is 27.6 ± 1.9.
As to `CO` [methanol] + CCCCn1cc[n+](C)c1.Cc1ccc(S(=O)(=O)[O-])cc1, the activity coefficient was 0.217 ± 0.029 (338.2 K), 0.219 ± 0.029 (348.2 K), 0.221 ± 0.029 (358.2 K) and 0.223 ± 0.029 (368.2 K).
Consider `CCCCCCCCC` [nonane] + CCCCn1cc[n+](C)c1.Cc1ccc(S(=O)(=O)[O-])cc1, for which the activity coefficient by setting is: (338.2 K) 86.1 ± 5.9; (348.2 K) 77.5 ± 5.3; (358.2 K) 71.3 ± 4.9; (368.2 K) 66.5 ± 4.6.
`C=CCCCCCC` [oct-1-ene] + CCCCn1cc[n+](C)c1.Cc1ccc(S(=O)(=O)[O-])cc1: the activity coefficient runs as follows: (338.2 K) 33.1 ± 2.3; (348.2 K) 31 ± 2.1; (358.2 K) 29.5 ± 2; (368.2 K) 28.2 ± 1.9.
Regarding `CCCCCCCC` [octane] + CCCCn1cc[n+](C)c1.Cc1ccc(S(=O)(=O)[O-])cc1, the activity coefficient runs as follows: (338.2 K) 63.9 ± 4.4; (348.2 K) 57.7 ± 4; (358.2 K) 53 ± 3.6; (368.2 K) 49.6 ± 3.4.
The corresponding values for `CCCC(C)=O` [pentan-2-one] + CCCCn1cc[n+](C)c1.Cc1ccc(S(=O)(=O)[O-])cc1 are 2.68 ± 0.18, 2.64 ± 0.18, 2.61 ± 0.18 and 2.58 ± 0.18.
For the compound `CCC(=O)CC` [pentan-3-one] + CCCCn1cc[n+](C)c1.Cc1ccc(S(=O)(=O)[O-])cc1, the activity coefficient reads like this: (338.2 K) 2.68 ± 0.18; (348.2 K) 2.65 ± 0.18; (358.2 K) 2.63 ± 0.18; (368.2 K) 2.6 ± 0.18.
Consider `CCCO` [propan-1-ol] + CCCCn1cc[n+](C)c1.Cc1ccc(S(=O)(=O)[O-])cc1, for which the activity coefficient runs as follows: (338.2 K) 0.437 ± 0.035; (348.2 K) 0.434 ± 0.035; (358.2 K) 0.437 ± 0.035; (368.2 K) 0.437 ± 0.035.
In the case of `C1CCOC1` [tetrahydrofuran] + CCCCn1cc[n+](C)c1.Cc1ccc(S(=O)(=O)[O-])cc1, the activity coefficient runs as follows: (338.2 K) 1.88 ± 0.13; (348.2 K) 1.87 ± 0.13; (358.2 K) 1.86 ± 0.13; (368.2 K) 1.85 ± 0.12.
`c1ccsc1` [thiophene] + CCCCn1cc[n+](C)c1.Cc1ccc(S(=O)(=O)[O-])cc1: the activity coefficient (338.2 K) stood at 1.11 ± 0.07, the activity coefficient (348.2 K) turned out to be 1.13 ± 0.07, the activity coefficient (358.2 K) was found to be 1.14 ± 0.07 and the activity coefficient (368.2 K) is 1.16 ± 0.07.
As for `Cc1ccccc1` [toluene] + CCCCn1cc[n+](C)c1.Cc1ccc(S(=O)(=O)[O-])cc1, the activity coefficient (338.2 K) is 3.03 ± 0.21, the activity coefficient (348.2 K) was determined as 3.01 ± 0.2, the activity coefficient (358.2 K) amounted to 2.99 ± 0.2 and the activity coefficient (368.2 K) amounted to 2.97 ± 0.2.
Turning to `O` [water] + CCCCn1cc[n+](C)c1.Cc1ccc(S(=O)(=O)[O-])cc1, the activity coefficient (338.2 K) was 0.191 ± 0.029, the activity coefficient (348.2 K) amounted to 0.196 ± 0.029, the activity coefficient (358.2 K) stood at 0.201 ± 0.029 and the activity coefficient (368.2 K) turned out to be 0.207 ± 0.029.
